We go through six compounds from patent publication US10710980B2, “Aminopyridine derivatives and their use as selective ALK-2 inhibitors” (priority 2016, dated 2020).

The target of test [1] is T1, wild-type ALK2 (aa172-499) (Homo sapiens (Human), UniProt Q04771). Nature of the test: ADPGlo biochemical autophosphorylation assay, ALK2. The following applies: 15 μm ATP, 60 min at 32° C. For orientation: ADP-Glo first removes unused ATP, then detects ADP through luciferase.
A further test deals with ALK3 (aa198-525) (Homo sapiens (Human), UniProt P36894). Nature of the test: ADPGlo biochemical autophosphorylation assay, ALK3. The following applies: 15 μm ATP, 60 min at 32° C.
In test [2] the target is T1, wild-type ALK2 (aa172-499). Nature of the test: Caliper biochemical peptide phosphorylation assay, ALK2. The following applies: 15 μm ATP, 60 min at 30° C.; read-out: ALK2 EPK (IC50).
The target of another test is ALK1 (aa166-493) (Homo sapiens (Human), UniProt P37023). In words: Caliper biochemical peptide phosphorylation assay, ALK1. Conditions: 15 μm ATP, 60 min at 30° C.; read-out: ALK1 EPK (IC50).
The target of a further test is ALK5 (aa162-503) (Homo sapiens (Human), UniProt P36897). In words: Caliper biochemical peptide phosphorylation assay, ALK5. Conditions: 15 μm ATP, 60 min at 30° C.; read-out: ALK5 EPK (IC50).
The target in the next test is ALK6 (aa168-495) (Homo sapiens (Human), UniProt O00238). In words: Caliper biochemical peptide phosphorylation assay, ALK6. Conditions: 15 μm ATP, 60 min at 30° C.; read-out: ALK6 EPK (IC50).
Test [3] relates to BMP response element (BRE) luciferase reporter in HuH7 cells, BMP6 stimulated. Nature of the test: BMP signaling reporter gene assay. The format is cell-based. The following applies: Homo sapiens, Huh-7; HuH7 BRE-luciferase, BMP6 100 ng/ml, 5 hours; read-out: MSD BMP RGA IC50.

Sequence of ALK5 (aa162-503) (P36897 162-503): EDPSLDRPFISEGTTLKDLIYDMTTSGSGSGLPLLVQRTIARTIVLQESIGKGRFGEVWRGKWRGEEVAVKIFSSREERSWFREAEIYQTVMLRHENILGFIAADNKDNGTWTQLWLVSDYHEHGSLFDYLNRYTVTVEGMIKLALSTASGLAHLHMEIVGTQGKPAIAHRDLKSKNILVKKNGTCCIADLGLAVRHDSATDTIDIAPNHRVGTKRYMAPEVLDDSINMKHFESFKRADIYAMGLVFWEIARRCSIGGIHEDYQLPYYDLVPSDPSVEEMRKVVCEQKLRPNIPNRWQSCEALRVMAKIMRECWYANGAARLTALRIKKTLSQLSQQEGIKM
Sequence of ALK6 (aa168-495) (O00238 168-495): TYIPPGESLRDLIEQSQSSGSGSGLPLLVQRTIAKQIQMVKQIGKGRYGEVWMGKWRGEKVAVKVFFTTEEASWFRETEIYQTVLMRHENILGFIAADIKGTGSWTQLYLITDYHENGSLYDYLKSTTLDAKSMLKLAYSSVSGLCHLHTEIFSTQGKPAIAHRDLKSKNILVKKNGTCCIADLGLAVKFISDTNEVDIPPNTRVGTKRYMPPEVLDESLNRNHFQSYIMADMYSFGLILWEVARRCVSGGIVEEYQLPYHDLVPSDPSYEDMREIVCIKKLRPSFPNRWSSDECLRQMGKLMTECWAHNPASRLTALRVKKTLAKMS
Sequence of ALK1 (aa166-493) (P37023 166-493): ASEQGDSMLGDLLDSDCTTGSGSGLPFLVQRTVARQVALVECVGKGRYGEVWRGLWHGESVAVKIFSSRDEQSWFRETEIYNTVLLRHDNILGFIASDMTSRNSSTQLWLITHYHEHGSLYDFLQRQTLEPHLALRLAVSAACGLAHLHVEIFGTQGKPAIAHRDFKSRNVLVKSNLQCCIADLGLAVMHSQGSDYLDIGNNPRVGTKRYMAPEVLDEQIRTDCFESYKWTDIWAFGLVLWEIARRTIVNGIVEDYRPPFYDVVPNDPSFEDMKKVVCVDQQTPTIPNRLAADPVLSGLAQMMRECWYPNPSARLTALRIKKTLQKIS
T1 sequence (Q04771 172-499): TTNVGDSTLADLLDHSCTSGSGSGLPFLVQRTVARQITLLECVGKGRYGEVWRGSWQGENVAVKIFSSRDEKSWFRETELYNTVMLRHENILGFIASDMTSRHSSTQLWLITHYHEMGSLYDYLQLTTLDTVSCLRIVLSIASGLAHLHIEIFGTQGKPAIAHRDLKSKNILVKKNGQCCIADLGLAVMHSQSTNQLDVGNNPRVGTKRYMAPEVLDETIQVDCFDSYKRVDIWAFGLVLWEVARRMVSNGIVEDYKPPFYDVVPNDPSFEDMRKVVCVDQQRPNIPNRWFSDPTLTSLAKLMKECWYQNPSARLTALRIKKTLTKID
Sequence of ALK3 (aa198-525) (P36894 198-525): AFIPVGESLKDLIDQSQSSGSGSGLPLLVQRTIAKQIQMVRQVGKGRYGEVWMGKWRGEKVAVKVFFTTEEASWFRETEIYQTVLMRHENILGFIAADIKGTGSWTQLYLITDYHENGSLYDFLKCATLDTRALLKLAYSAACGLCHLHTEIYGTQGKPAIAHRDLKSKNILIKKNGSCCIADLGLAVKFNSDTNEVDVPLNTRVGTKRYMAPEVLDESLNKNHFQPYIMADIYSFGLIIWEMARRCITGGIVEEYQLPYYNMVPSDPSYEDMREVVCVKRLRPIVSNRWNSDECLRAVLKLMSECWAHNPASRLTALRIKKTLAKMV

With `Nc1ncc(-c2ccc([C@]34C[C@H]3CN(CCN3CCOCC3)C4)cc2)cc1C(=O)N[C@H]1CC[C@H](O)CC1` [Example 13, 2-amino-N-((1r,4S)-4-hydroxycyclohexyl)-5-(4-((1S,5R)-3-(2-morpholinoethyl)-3-azabicyclo[3.1.0]hexan-1-yl)phenyl)nicotinamide], the half-maximal inhibitory concentration (IC50) in test [1] is 8 nM; against ALK3 (aa198-525), 1400 nM; in test [2], 13 nM; at ALK1 (aa166-493), 140 nM; at ALK5 (aa162-503), 3100 nM; at ALK6 (aa168-495), 3000 nM. Moreover, in test [3], the IC50 was 78 nM.

Consider `Nc1ncc(-c2ccc([C@@]34C[C@@H]3CN(CCN3CCOCC3)C4)cc2)cc1C(=O)NC12CCC(O)(CC1)CC2` [Example 15, 2-amino-N-(4-hydroxybicyclo[2.2.2]octan-1-yl)-5-(4-((1R,5S)-3-(2-morpholinoethyl)-3-azabicyclo[3.1.0]hexan-1-yl)phenyl)nicotinamide], for which the IC50 in test [1] was 29 nM; at ALK3 (aa198-525), 967 nM; in test [2] it was 20 nM; on ALK1 (aa166-493) it was 370 nM; at ALK5 (aa162-503), 3770 nM; at ALK6 (aa168-495) it was 2230 nM. Moreover, the IC50 in test [3] was found to be 74 nM.

`CC(C)N1C[C@@H]2C[C@]2(c2ccc(-c3cnc(N)c(C(=O)NC45CC(CO)(C4)C5)c3)cc2)C1` [Example 16, 2-amino-N-(3-(hydroxymethyl)bicyclo[1.1.1]pentan-1-yl)-5-(4-((1S,5R)-3-isopropyl-3-azabicyclo[3.1.0]hexan-1-yl)phenyl)nicotinamide]: the half-inhibitory concentration (IC50) in test [1] turned out to be 12 nM; on ALK3 (aa198-525), 1400 nM; in test [2], 15 nM; on ALK1 (aa166-493), 240 nM; at ALK5 (aa162-503) it was 9900 nM; on ALK6 (aa168-495), 5000 nM. Further, the concentration for half-maximal inhibition (IC50) in test [3] worked out at 79 nM.

Take `Nc1ncc(-c2ccc([C@]34C[C@H]3CN(CCC(F)(F)F)C4)cc2)cc1C(=O)N[C@H]1CC[C@H](O)CC1` [Example 17, 2-amino-N-((1r,4S)-4-hydroxycyclohexyl)-5-(4-((1S,5R)-3-(3,3,3-trifluoropropyl)-3-azabicyclo[3.1.0]hexan-1-yl)phenyl)nicotinamide]: the IC50 was found to be 12 nM in test [1]; 2000 nM at ALK3 (aa198-525); 14 nM in test [2]; 110 nM at ALK1 (aa166-493); 1600 nM on ALK5 (aa162-503); 2400 nM at ALK6 (aa168-495). Also, the 50% inhibitory concentration (IC50) in test [3] stood at 150 nM.

On to `COCCN1C[C@@H]2C[C@]2(c2ccc(-c3cnc(N)c(C(=O)N[C@H]4CC[C@H](O)CC4)c3)cc2)C1` [Example 20, 2-amino-N-((1r,4S)-4-hydroxycyclohexyl)-5-(4-((1S,5R)-3-(2-methoxyethyl)-3-azabicyclo[3.1.0]hexan-1-yl)phenyl)nicotinamide], for which the IC50 is 7 nM in test [1]; 1350 nM against ALK3 (aa198-525); 17 nM in test [2]; 130 nM on ALK1 (aa166-493); 3800 nM at ALK5 (aa162-503); 3950 nM on ALK6 (aa168-495). Moreover, the IC50 in test [3] was 40 nM.

Regarding `Nc1ncc(-c2ccc([C@@]34C[C@@H]3CN(C3CCOCC3)C4)cc2)cc1C(=O)N[C@@H]1CC[C@@H](O)[C@@H](F)C1` [Example 21, 2-amino-N-((1R,3S,4R)-3-fluoro-4-hydroxycyclohexyl)-5-(4-((1R,5S)-3-(tetrahydro-2H-pyran-4-yl)-3-azabicyclo[3.1.0]hexan-1-yl)phenyl)nicotinamide], the IC50 in test [1] was found to be 6 nM; at ALK3 (aa198-525) it was 260 nM; in test [2], 19 nM; on ALK1 (aa166-493) it was 55 nM; at ALK5 (aa162-503), 900 nM; at ALK6 (aa168-495), 1000 nM. Also, the IC50 in test [3] turned out to be 35 nM.

The term IC50 denotes the concentration that inhibits the measured activity by half.
